Laboratory results taken from patent US8247211B2, “Glycopeptide antibiotics” (American Cyanamid Company, priority 2001, dated 2012).
Values after ≈ are worked out from the molar mass of the structure shown.

Assays:
Experiment in all cases: In vitro antibacterial evaluation: minimum inhibitory concentration (MIC), broth dilution method
Assay type in all cases: cell-based
Enterococcus sp. = tested on: Enterococcus sp.
In short: (§1)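 Inoculum: 5×10^5 CFU/mL. Range: 64-0.06 μg/mL. Medium: Muller-Hinton II […]; NCCLS M7-A2 broth dilution. Endpoint: lowest concentration inhibiting growth. Strains include methicillin-, penicillin- and/or vancomycin-resistant clinical isolates.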

Staphylococcus sp. = conditions: broth dilution, 18 hours at 35° C.
In short: as §1

Escherichia coli = tested on: Escherichia coli
In short: as §1

Streptococcus sp. = tested on: Streptococcus sp.
In short: as §1

[1] = broth dilution, inoculum 5×10^5 CFU/mL, 18 hours at 35° C.

## CC(c1ccccc1)C1NC(=O)CNC(=O)C(CO)NC(=O)C(C(O)C2CNC(=N)N2C2OC(CO)C(O)C(O)C2O)NC(=O)C(C(O)C2CNC(=N)N2)NC(=O)C(Cc2ccc(OC3OC(CO)C(OC4OC5COC(c6ccc(-c7ccc(Cl)cc7)cc6)OC5C(O)C4O)C(O)C3O)cc2)NC1=O (stereo not drawn) [Example 178]
Enterococcus sp.; [1]
  MIC Enterococcus avium (GC 4558): 4 µg/mL (≈ 2.68 µM)
  MIC Enterococcus faecalis (ATCC 29212): 4 µg/mL (≈ 2.68 µM)
  MIC Enterococcus faecalis (GC 2242): 2 µg/mL (≈ 1.34 µM)
  MIC Enterococcus faecalis (GC 2691): 1 µg/mL (≈ 0.669 µM)
  MIC Enterococcus faecalis (GC 3059): 16 µg/mL (≈ 10.7 µM)
  MIC Enterococcus faecalis (GC 4552): 4 µg/mL (≈ 2.68 µM)
  MIC Enterococcus faecalis (GC 4553): 2 µg/mL (≈ 1.34 µM)
  MIC Enterococcus faecalis (GC 4554): 2 µg/mL (≈ 1.34 µM)
  MIC Enterococcus faecalis (GC 6189): 0.5 µg/mL (≈ 0.335 µM)
  MIC Enterococcus faecium (GC 2243): 4 µg/mL (≈ 2.68 µM)
  MIC Enterococcus faecium (GC 4556): 4 µg/mL (≈ 2.68 µM)
  MIC Enterococcus faecium (GC 4557): 8 µg/mL (≈ 5.36 µM)
Enterococcus sp.; strain ATCC 29212
  MIC Enterococcus faecalis (ATCC 29212): 4 µg/mL (≈ 2.68 µM)
Enterococcus sp.; strain GC 2242
  MIC Enterococcus faecalis (GC 2242): 2 µg/mL (≈ 1.34 µM)
Enterococcus sp.; strain GC 2243
  MIC Enterococcus faecium (GC 2243): 4 µg/mL (≈ 2.68 µM)
Enterococcus sp.; strain GC 2691
  MIC Enterococcus faecalis (GC 2691): 1 µg/mL (≈ 0.669 µM)
Enterococcus sp.; strain GC 3059
  MIC Enterococcus faecalis (GC 3059): 16 µg/mL (≈ 10.7 µM)
Enterococcus sp.; strain GC 4552
  MIC Enterococcus faecalis (GC 4552): 4 µg/mL (≈ 2.68 µM)
Enterococcus sp.; strain GC 4553
  MIC Enterococcus faecalis (GC 4553): 2 µg/mL (≈ 1.34 µM)
Enterococcus sp.; strain GC 4554
  MIC Enterococcus faecalis (GC 4554): 2 µg/mL (≈ 1.34 µM)
Enterococcus sp.; strain GC 4556
  MIC Enterococcus faecium (GC 4556): 4 µg/mL (≈ 2.68 µM)
Enterococcus sp.; strain GC 4557
  MIC Enterococcus faecium (GC 4557): 8 µg/mL (≈ 5.36 µM)
Enterococcus sp.; strain GC 4558
  MIC Enterococcus avium (GC 4558): 4 µg/mL (≈ 2.68 µM)
Enterococcus sp.; strain GC 6189
  MIC Enterococcus faecalis (GC 6189): 0.5 µg/mL (≈ 0.335 µM)
Staphylococcus sp.; 5×10^5 CFU/mL
  MIC Coagulase Negative Staphylococcus (GC 4547): 32 µg/mL (≈ 21.4 µM)
  MIC Coagulase Negative Staphylococcus (GC 4548): 0.5 µg/mL (≈ 0.335 µM)
  MIC Coagulase Negative Staphylococcus (GC 4549): 2 µg/mL (≈ 1.34 µM)
  MIC Coagulase Negative Staphylococcus (GC 4551): 4 µg/mL (≈ 2.68 µM)
  MIC Coagulase Negative Staphylococcus (GC 6257): 2 µg/mL (≈ 1.34 µM)
  MIC Staphylococcus aureus (ATCC 29213): 16 µg/mL (≈ 10.7 µM)
  MIC Staphylococcus aureus (GC 1131): 4 µg/mL (≈ 2.68 µM)
  MIC Staphylococcus aureus (GC 3051): 8 µg/mL (≈ 5.36 µM)
  MIC Staphylococcus aureus (GC 3053): 4 µg/mL (≈ 2.68 µM)
  MIC Staphylococcus aureus (GC 4541): 8 µg/mL (≈ 5.36 µM)
  MIC Staphylococcus aureus (GC 4542): 8 µg/mL (≈ 5.36 µM)
  MIC Staphylococcus aureus (GC 4544): 8 µg/mL (≈ 5.36 µM)
  MIC Staphylococcus aureus (GC 4545): 4 µg/mL (≈ 2.68 µM)
  MIC Staphylococcus aureus-SMITH (GC 4543): 4 µg/mL (≈ 2.68 µM)
  MIC Staphylococcus haemolyticus (GC 4546): 8 µg/mL (≈ 5.36 µM)
Staphylococcus sp.; strain ATCC 29213
  MIC Staphylococcus aureus (ATCC 29213): 16 µg/mL (≈ 10.7 µM)
Staphylococcus sp.; strain GC 1131
  MIC Staphylococcus aureus (GC 1131): 4 µg/mL (≈ 2.68 µM)
Staphylococcus sp.; strain GC 3051
  MIC Staphylococcus aureus (GC 3051): 8 µg/mL (≈ 5.36 µM)
Staphylococcus sp.; strain GC 3053
  MIC Staphylococcus aureus (GC 3053): 4 µg/mL (≈ 2.68 µM)
Staphylococcus sp.; strain GC 4541
  MIC Staphylococcus aureus (GC 4541): 8 µg/mL (≈ 5.36 µM)
Staphylococcus sp.; strain GC 4542
  MIC Staphylococcus aureus (GC 4542): 8 µg/mL (≈ 5.36 µM)
Staphylococcus sp.; strain GC 4544
  MIC Staphylococcus aureus (GC 4544): 8 µg/mL (≈ 5.36 µM)
Staphylococcus sp.; strain GC 4545
  MIC Staphylococcus aureus (GC 4545): 4 µg/mL (≈ 2.68 µM)
Escherichia coli; strain ATCC 25922
  MIC Escherichia coli (ATCC 25922): >64 µg/mL
Escherichia coli; strain GC 4559
  MIC Escherichia coli (GC 4559): >64 µg/mL
Escherichia coli; strain GC 4560
  MIC Escherichi coli (GC 4560): 16 µg/mL (≈ 10.7 µM)
Streptococcus sp.; [1]
  MIC Streptococcus agalactiae (GC 4564): <0.06 µg/mL
  MIC Streptococcus pneumoniae (ATCC 6301): <0.06 µg/mL
  MIC Streptococcus pneumoniae (GC 1894): <0.06 µg/mL
  MIC Streptococcus pneumoniae (GC 4565): <0.06 µg/mL
  MIC Streptococcus pyogenes (GC 4563): 0.12 µg/mL (≈ 0.0803 µM)
Streptococcus sp.; strain ATCC 6301
  MIC Streptococcus pneumoniae (ATCC 6301): <0.06 µg/mL
Streptococcus sp.; strain GC 1894
  MIC Streptococcus pneumoniae (GC 1894): <0.06 µg/mL
Streptococcus sp.; strain GC 4563
  MIC Streptococcus pyogenes (GC 4563): 0.12 µg/mL (≈ 0.0803 µM)
Streptococcus sp.; strain GC 4564
  MIC Streptococcus agalactiae (GC 4564): <0.06 µg/mL
Streptococcus sp.; strain GC 4565
  MIC Streptococcus pneumoniae (GC 4565): <0.06 µg/mL
